Data from ChEMBL document CHEMBL1133300, “Natural product derived inhibitors of lipoprotein associated phospholipase A2, synthesis and activity of analogues of SB-253514” (Bioorg Med Chem Lett, 2000).

Columns and labels:
[1] = The compound was evaluated for time dependent inhibitory activity against Lipoprotein associated Phospholipase A2 (Lp-PLA2) enzyme after 10 min incubation.
[2] = The compound was evaluated for time dependent inhibitory activity against Lipoprotein associated Phospholipase A2 (Lp-PLA2) enzyme after 10 min incubation; Inactive

## CCCCCCCCCCC[C@H](CC(=O)NC(=O)/C=C1/OC(=O)N2CCCC12)O[C@@H]1O[C@@H](C)[C@H](O)[C@@H](O)[C@H]1O (stereo partly drawn)
[1]
  IC50: 51 nM

## CCCCCCCCCCCCCCCCNC(=O)/C=C1/OC(=O)N2CCC[C@H]12
[1]
  IC50: 12 nM

## CCCCCCCC(=O)OCCCCC#C/C=C1/OC(=O)N2CCC[C@@H]12
[2]
  IC50: Not Active

## CCCCCCCCCCCCCCCCNC(=O)/C=C1/OC(=O)N2CCC[C@@H]12
[1]
  IC50: 25 nM

## CCCCCCCCCCCCCCNC(=O)/C=C1/OC(=O)N2CCC[C@@H]12
[1]
  IC50: 28 nM

## CCCCCCCCCCCCNC(=O)/C=C1/OC(=O)N2CCC[C@@H]12
[1]
  IC50: 170 nM

## O=C1O/C(=C/C#CCCCCO)[C@@H]2CCCN12
[2]
  IC50: Not Active

## CCCCCCCCCCCCCCC#C/C=C1/OC(=O)N2CCC[C@@H]12
[2]
  IC50: Not Active
